According to the NIST ThermoML archive (doi:10.1007/s10765-011-1149-x):
± gives the expanded uncertainty stated by the source.

Assay: xn = mol fraction of the nth substance listed
Conditions: 101 kPa, Liquid, Vibrating tube method

Cc1cc(C)nc(C)c1 [2,4,6-trimethylpyridine] + OCCO
Conditions | mass density [kg/m3]
276.15 K, x1 = 0.0227 | 1116.64 ± 0.17
276.15 K, x1 = 0.0509 | 1106.81 ± 0.17
276.15 K, x1 = 0.1024 | 1090.72 ± 0.18
276.15 K, x1 = 0.1996 | 1065.35 ± 0.19
276.15 K, x1 = 0.2983 | 1043.61 ± 0.19
276.15 K, x1 = 0.4014 | 1024.29 ± 0.19
276.15 K, x1 = 0.4958 | 1008.47 ± 0.19
276.15 K, x1 = 0.5984 | 991.05 ± 0.2
276.15 K, x1 = 0.6974 | 975.68 ± 0.2
276.15 K, x1 = 0.7927 | 959.81 ± 0.21
276.15 K, x1 = 0.8896 | 944.84 ± 0.22
277.15 K, x1 = 0.0227 | 1115.94 ± 0.16
277.15 K, x1 = 0.0509 | 1106.1 ± 0.16
277.15 K, x1 = 0.1996 | 1064.61 ± 0.17
277.15 K, x1 = 0.2983 | 1042.81 ± 0.17
277.15 K, x1 = 0.4014 | 1023.47 ± 0.18
277.15 K, x1 = 0.4958 | 1007.63 ± 0.19
277.15 K, x1 = 0.5984 | 990.18 ± 0.19
277.15 K, x1 = 0.6974 | 974.81 ± 0.2
277.15 K, x1 = 0.7927 | 958.95 ± 0.21
277.15 K, x1 = 0.8896 | 944 ± 0.22
277.16 K, x1 = 0.1024 | 1090 ± 0.16
283.15 K, x1 = 0.0227 | 1111.72 ± 0.16
283.15 K, x1 = 0.0509 | 1101.82 ± 0.16
283.15 K, x1 = 0.1996 | 1060.1 ± 0.17
283.15 K, x1 = 0.2983 | 1038.02 ± 0.17
283.15 K, x1 = 0.4014 | 1018.5 ± 0.18
283.15 K, x1 = 0.5984 | 985 ± 0.19
283.15 K, x1 = 0.7927 | 953.81 ± 0.21
283.15 K, x1 = 0.8896 | 938.89 ± 0.22
283.16 K, x1 = 0.1024 | 1085.61 ± 0.16
283.16 K, x1 = 0.4958 | 1002.53 ± 0.19
283.16 K, x1 = 0.6974 | 969.63 ± 0.2
288.15 K, x1 = 0.0227 | 1108.21 ± 0.16
288.15 K, x1 = 0.0509 | 1098.26 ± 0.16
288.15 K, x1 = 0.1024 | 1081.94 ± 0.16
288.15 K, x1 = 0.1996 | 1056.23 ± 0.17
288.15 K, x1 = 0.2983 | 1034.02 ± 0.17
288.15 K, x1 = 0.4014 | 1014.34 ± 0.18
288.15 K, x1 = 0.4958 | 998.27 ± 0.19
288.15 K, x1 = 0.5984 | 980.68 ± 0.19
288.15 K, x1 = 0.6974 | 965.31 ± 0.2
288.15 K, x1 = 0.7927 | 949.52 ± 0.21
288.15 K, x1 = 0.8896 | 934.64 ± 0.22
293.14 K, x1 = 0.1024 | 1078.26 ± 0.16
293.15 K, x1 = 0.0227 | 1104.68 ± 0.16
293.15 K, x1 = 0.0509 | 1094.67 ± 0.16
293.15 K, x1 = 0.1996 | 1052.33 ± 0.17
293.15 K, x1 = 0.2983 | 1029.98 ± 0.17
293.15 K, x1 = 0.4014 | 1010.15 ± 0.18
293.15 K, x1 = 0.4958 | 993.97 ± 0.19
293.15 K, x1 = 0.5984 | 976.33 ± 0.19
293.15 K, x1 = 0.6974 | 960.96 ± 0.2
293.15 K, x1 = 0.7927 | 945.2 ± 0.21
293.15 K, x1 = 0.8896 | 930.36 ± 0.22
298.14 K, x1 = 0.0227 | 1101.13 ± 0.16
298.14 K, x1 = 0.0509 | 1091.07 ± 0.16
298.14 K, x1 = 0.1024 | 1074.55 ± 0.16
298.14 K, x1 = 0.2983 | 1025.93 ± 0.17
298.14 K, x1 = 0.4958 | 989.66 ± 0.19
298.14 K, x1 = 0.8896 | 926.07 ± 0.22
298.15 K, x1 = 0.1996 | 1048.43 ± 0.16
298.15 K, x1 = 0.4014 | 1005.94 ± 0.18
298.15 K, x1 = 0.5984 | 971.96 ± 0.19
298.15 K, x1 = 0.6974 | 956.59 ± 0.2
298.15 K, x1 = 0.7927 | 940.86 ± 0.21
303.15 K, x1 = 0.0227 | 1097.58 ± 0.16
303.15 K, x1 = 0.0509 | 1087.45 ± 0.16
303.15 K, x1 = 0.1024 | 1070.84 ± 0.16
303.15 K, x1 = 0.1996 | 1044.52 ± 0.16
303.15 K, x1 = 0.2983 | 1021.84 ± 0.17
303.15 K, x1 = 0.4014 | 1001.71 ± 0.18
303.15 K, x1 = 0.4958 | 985.33 ± 0.19
303.15 K, x1 = 0.5984 | 967.57 ± 0.19
303.15 K, x1 = 0.6974 | 952.2 ± 0.2
303.15 K, x1 = 0.7927 | 936.51 ± 0.21
303.15 K, x1 = 0.8896 | 921.76 ± 0.22
308.14 K, x1 = 0.4014 | 997.46 ± 0.18
308.14 K, x1 = 0.5984 | 963.16 ± 0.19
308.15 K, x1 = 0.0227 | 1094.01 ± 0.16
308.15 K, x1 = 0.0509 | 1083.83 ± 0.16
308.15 K, x1 = 0.1024 | 1067.1 ± 0.16
308.15 K, x1 = 0.1996 | 1040.64 ± 0.16
308.15 K, x1 = 0.2983 | 1017.74 ± 0.17
308.15 K, x1 = 0.4958 | 980.98 ± 0.19
308.15 K, x1 = 0.6974 | 947.78 ± 0.2
308.15 K, x1 = 0.7927 | 932.13 ± 0.21
308.15 K, x1 = 0.8896 | 917.43 ± 0.22
313.14 K, x1 = 0.1024 | 1063.34 ± 0.16
313.14 K, x1 = 0.1996 | 1036.74 ± 0.16
313.14 K, x1 = 0.2983 | 1013.62 ± 0.16
313.14 K, x1 = 0.4014 | 993.19 ± 0.17
313.14 K, x1 = 0.4958 | 976.61 ± 0.19
313.14 K, x1 = 0.5984 | 958.73 ± 0.19
313.15 K, x1 = 0.0227 | 1090.43 ± 0.16
313.15 K, x1 = 0.0509 | 1080.18 ± 0.16
313.15 K, x1 = 0.6974 | 943.35 ± 0.2
313.15 K, x1 = 0.7927 | 927.74 ± 0.21
313.15 K, x1 = 0.8896 | 913.09 ± 0.22
